Data from patent publication US8609699B2, “Oxotetrahydrofuran-2-yl-benzimidazole derivative” (MSD K.K., priority 2008, dated 2013).
Each block holds one compound with its values, some of them ahead of it.

Assays:
[1] = target: T1, recombinant human liver GK (Homo sapiens, UniProt P35557); experiment: Glucokinase-activating effect (Thio-NADH, G6PDH-coupled assay); assay type: biochemical; conditions: final glucose 2.5 mM, 30° C; for Emax(%): OD level of DMSO control = 100%
T1 construct: made in house; host or cells: E. coli
T1 sequence (P35557 1-466 isoform P35557-2): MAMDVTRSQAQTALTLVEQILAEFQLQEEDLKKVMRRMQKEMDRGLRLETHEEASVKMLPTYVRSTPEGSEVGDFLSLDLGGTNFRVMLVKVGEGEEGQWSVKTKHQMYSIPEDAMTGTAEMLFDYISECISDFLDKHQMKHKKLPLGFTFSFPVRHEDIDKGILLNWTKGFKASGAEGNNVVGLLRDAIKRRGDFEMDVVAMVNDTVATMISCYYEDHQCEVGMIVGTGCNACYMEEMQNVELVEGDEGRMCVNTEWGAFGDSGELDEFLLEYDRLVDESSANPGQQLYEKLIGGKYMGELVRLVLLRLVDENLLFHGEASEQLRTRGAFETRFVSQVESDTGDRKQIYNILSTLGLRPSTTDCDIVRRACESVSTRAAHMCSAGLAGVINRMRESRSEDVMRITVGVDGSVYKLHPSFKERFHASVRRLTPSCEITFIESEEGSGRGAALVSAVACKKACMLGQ
Description: The excellent glucokinase-activating effect of the compounds of formula (I) may be determined by a method described in literature (for example, Diabetes, Vol. 45, pp. 1671-1677, 1996), or in accordance with it.
The glucokinase activity may be determined not by directly measuring glucose-6-phosphate but by measuring the level of Thio-NADH, which is produced when a reporter enzyme, glucose-6-phosphate dehydrogenase produces phosphogluconolactone from glucose-6-phosphate, and based on the level, the degree of glucokinase activation by the compound tested may be determined.
In this assay, used was a recombinant human liver GK, which was expressed by E. coli as a FLAG fusion protein therein and was purified by ANTIFLAG M2 AFFINITY GEL (Sigma).
Using a flat-bottomed 96-well plate, the assay was carried out at 30° C. 69 μl of an assay buffer (25 mM Hepes Buffer/pH=7.2, 2 mM MgCl2, 1 mM ATP, 0.5 mM TNAD, 1 mM dithiothreitol) was put into the plate, and 1 μl of a DMSO solution of the compound or DMSO alone as a control was added thereto. Next, 20 μl of an enzyme mixture (FLAG-GK, 20 U/ml G6PDH) cooled in ice was added to it, and 10 μl of a substrate, 25 mM glucose was added to it, and the reaction was initiated (final glucose concentration=2.5 mM).
After the start of the reaction, the increase in the absorbance at 405 nm was measured for 12 minutes at intervals of 30 seconds, and the increase for the first 5 minutes was used for assessing the compound tested. FLAG-GK was added so that the absorbance increase after 5 minutes in the presence of 1% DMSO could be from 0.04 to 0.06.
The OD level of the DMSO control was set as 100%; and the OD level of the test compound at different concentrations was determined. From the OD level at each concentration, Emax (%) and EC50 (μM) were computed and used as the index of the GK-activating potency of the compound.
The GK activating effect of the compounds of the invention was measured according to the method as above, and the results are shown in Table 5 below.

[2] = system: high-fat diet loaded mice; experiment: Antihyperglycemic effect in high-fat diet loaded mice; assay type: in vivo, C57BL/6J mice; conditions: oral 10 mg/kg in 0.5% methyl cellulose; 1 hour after administration; free-feeding mice
Protocol: Six-week-old male C57BL/6J mice were fed a high-fat diet (RESEARCH DIETS, D12492) for ≧9 weeks to produce the high-fat diet loaded mice (>160 mg/dl).
The slight tail tips of the high-fat diet loaded mice (18-21 weeks old, n=6) under the conditions of free-feeding and water intake were cut with scissors to collect their blood. The collected blood was used to determine blood glucose levels prior to the administration of a compound by a blood glucose level measuring apparatus (One Touch Ultra (Johnson. Johnson)), followed by oral administration of the compound suspended in a 0.5% methyl cellulose solution at 10 mg/kg, while a 0.5% methyl cellulose solution was orally administered to the control group. The blood glucose levels were determined using the blood glucose level measuring apparatus every 1 hour after the administration of the test drug solutions.
The values of the decreases in blood glucose (differences between the control group and the compound-treated group) at 1 hour after administration were shown in Table 7 described below.
The values of the decreases in blood glucose (differences between the control group and the compound-treated group) at 1 hour after administration of the compounds according to Example 1 and Example 7 were shown in Table 7 described below.

male beagles = experiment: Antihyperglycemic effect in fasted beagles (plasma glucose AUC); assay type: in vivo; conditions: compared to control group up to 4 hours after administration, fasted overnight
Protocol: From the cephalic vein of male beagles fasted overnight (9.4-14.4 kg body weight), blood was collected prior to administration, followed by oral administration of the test drug suspended in a 0.5% methyl cellulose solution (0.3 and 1 mg/kg), while a 0.5% methyl cellulose solution was orally administered to the control group. The blood was collected at 0.5, 1, 2, and 4 hours after the administration of the test drug. Plasma was separated from the obtained blood to determine a plasma glucose level using Determina-GL-E (Kyowa Medics).

[3] = racemates, comparison with WO2007/007910

Compound: O=C1CCC(c2cc3[nH]c(-c4ccccn4)nc3cc2Oc2ccc(C(=O)N3CCC3)nc2)O1 (single isomer, unassigned) [Example 2 B, 5-(5-{[6-(azetidin-1-ylcarbonyl)pyridin-3-yl)oxy}-2-pyridin-2-yl-1H-benzimidazol-6-yl)dihydrofuran-2(3H)-one]
Emax(%) ([1]; separated enantiomers, listed as 2 B): 704%
EC50 ([1]; separated enantiomers): 0.31 µM

Compound: COCc1ccc(Oc2cc3nc(-c4ccccn4)[nH]c3cc2C2CCC(=O)O2)cn1 (racemic) [Example 11 Racemate, 5-(5-{[6-(methoxymethyl)pyridin-3-yl]oxy}-2-pyridin-2-yl-1H-benzimidazol-6-yl)dihydrofuran-2(3H)-one]
EC50 [1, 3]: 0.49 µM

Compound: O=C1CCC(c2cc3[nH]c(-c4ccccn4)nc3cc2Oc2ccc(C(=O)N3CCC3)cc2)O1 (single isomer, unassigned) [Example 1 A, 5-{5-[4-(azetidin-1-ylcarbonyl)phenoxy]-2-pyridin-2-yl-1H-benzimidazol-6-yl}dihydrofuran-2(3H)-one]
Emax(%) ([1]; separated enantiomers, listed as 1 A): 541%
EC50 ([1]; separated enantiomers): 1.91 µM

Compound: CN(C)C(=O)Cc1ccc(Oc2cc3nc(-c4ccccn4)[nH]c3cc2C2CCC(=O)O2)cc1 (racemic) [Example 7 Racemate, N,N-dimethyl-2-(4-{[6-(5-oxotetrahydrofuran-2-yl)-2-pyridin-2-yl-1H-benzimidazol-5-yl]oxy}phenyl)acetamide]
EC50 [1, 3]: 0.47 µM

Compound: O=C1CCC(c2cc3[nH]c(-c4ccccn4)nc3cc2Oc2ccc(C(=O)N3CCC3)cc2)O1 (single isomer, unassigned) [Example 1 B, 5-{5-[4-(azetidin-1-ylcarbonyl)phenoxy]-2-pyridin-2-yl-1H-benzimidazol-6-yl}dihydrofuran-2(3H)-one]
Emax(%) ([1]; separated enantiomers, listed as 1 B): 588%
EC50 ([1]; separated enantiomers): 0.24 µM
Difference from control group (Δmg/dl), decrease in blood glucose [2]: −132 Δmg/dl
Rate of decrease (%) in plasma glucose level AUC (male beagles; oral 0.3 mg/kg): 16.2%
Rate of decrease (%) in plasma glucose level AUC (male beagles; oral 1.0 mg/kg): 23.4%

Compound: CN(C)C(=O)Cc1ccc(Oc2cc3nc(-c4ccccn4)[nH]c3cc2C2CCC(=O)O2)cc1 (single isomer, unassigned) [Example 7 B, N,N-dimethyl-2-(4-{[6-(5-oxotetrahydrofuran-2-yl)-2-pyridin-2-yl-1H-benzimidazol-5-yl]oxy}phenyl)acetamide]
Emax(%) ([1]; separated enantiomers, listed as 7 B): 972%
EC50 ([1]; separated enantiomers): 0.29 µM
Difference from control group (Δmg/dl), decrease in blood glucose [2]: −146 Δmg/dl
Rate of decrease (%) in plasma glucose level AUC (male beagles; oral 0.3 mg/kg): 12.4%
Rate of decrease (%) in plasma glucose level AUC (male beagles; oral 1.0 mg/kg): 15.6%

Compound: COCc1ccc(Oc2cc3nc(-c4ccccn4)[nH]c3cc2C2CCC(=O)O2)cn1 (single isomer, unassigned) [Example 11 A, 5-(5-{[6-(methoxymethyl)pyridin-3-yl]oxy}-2-pyridin-2-yl-1H-benzimidazol-6-yl)dihydrofuran-2(3H)-one]
Emax(%) ([1]; separated enantiomers, listed as 11 A): 412%
EC50 ([1]; separated enantiomers): 16.6 µM

Compound: COCc1ccc(Oc2cc3nc(-c4ccccn4)[nH]c3cc2C2CCC(=O)O2)cn1 (single isomer, unassigned) [Example 11 B, 5-(5-{[6-(methoxymethyl)pyridin-3-yl]oxy}-2-pyridin-2-yl-1H-benzimidazol-6-yl)dihydrofuran-2(3H)-one]
Emax(%) ([1]; separated enantiomers, listed as 11 B): 788%
EC50 ([1]; separated enantiomers): 0.27 µM

Compound: O=C1CCC(c2cc3[nH]c(-c4ccccn4)nc3cc2Oc2ccc(C(=O)N3CCC3)cc2)O1 (racemic) [Example 1 Racemate, 5-{5-[4-(azetidin-1-ylcarbonyl)phenoxy]-2-pyridin-2-yl-1H-benzimidazol-6-yl}dihydrofuran-2(3H)-one]
EC50 [1, 3]: 0.53 µM

Compound: CN(C)C(=O)Cc1ccc(Oc2cc3nc(-c4ccccn4)[nH]c3cc2C2CCC(=O)O2)cc1 (single isomer, unassigned) [Example 7 A, N,N-dimethyl-2-(4-{[6-(5-oxotetrahydrofuran-2-yl)-2-pyridin-2-yl-1H-benzimidazol-5-yl]oxy}phenyl)acetamide]
Emax(%) ([1]; separated enantiomers, listed as 7 A): 775%
EC50 ([1]; separated enantiomers): 2.47 µM

The next lines start with the values.

Emax(%) ([1]; separated enantiomers, listed as 6 B): 781%
EC50 ([1]; separated enantiomers): 0.24 µM
Compound: CCNC(=O)c1ccc(Oc2cc3nc(-c4ccccn4)[nH]c3cc2C2CCC(=O)O2)cn1 (single isomer, unassigned) [Example 6 B, N-ethyl-5-{[6-(5-oxotetrahydrofuran-2-yl)-2-pyridin-2-yl-1H-benzimidazol-5-yl]oxy}pyridine-2-carboxamide]

Emax(%) ([1]; separated enantiomers, listed as 6 A): 553%
EC50 ([1]; separated enantiomers): 1.83 µM
Compound: CCNC(=O)c1ccc(Oc2cc3nc(-c4ccccn4)[nH]c3cc2C2CCC(=O)O2)cn1 (single isomer, unassigned) [Example 6 A, N-ethyl-5-{[6-(5-oxotetrahydrofuran-2-yl)-2-pyridin-2-yl-1H-benzimidazol-5-yl]oxy}pyridine-2-carboxamide]

Emax(%) ([1]; separated enantiomers, listed as 2 A): 476%
EC50 ([1]; separated enantiomers): 15.1 µM
Compound: O=C1CCC(c2cc3[nH]c(-c4ccccn4)nc3cc2Oc2ccc(C(=O)N3CCC3)nc2)O1 (single isomer, unassigned) [Example 2 A, 5-(5-{[6-(azetidin-1-ylcarbonyl)pyridin-3-yl)oxy}-2-pyridin-2-yl-1H-benzimidazol-6-yl)dihydrofuran-2(3H)-one]

Emax(%) ([1]; separated enantiomers, listed as 4 B): 668%
EC50 ([1]; separated enantiomers): 0.28 µM
Compound: CN(C)C(=O)c1ccc(Oc2cc3nc(-c4ccccn4)[nH]c3cc2C2CCC(=O)O2)cn1 (single isomer, unassigned) [Example 4 B, N,N-dimethyl-5-{[6-(5-oxotetrahydrofuran-2-yl)-2-pyridin-2-yl-1H-benzimidazol-5-yl]oxy}pyridine-2-carboxamide]

Emax(%) ([1]; separated enantiomers, listed as 4 A): 432%
EC50 ([1]; separated enantiomers): 15.9 µM
Compound: CN(C)C(=O)c1ccc(Oc2cc3nc(-c4ccccn4)[nH]c3cc2C2CCC(=O)O2)cn1 (single isomer, unassigned) [Example 4 A, N,N-dimethyl-5-{[6-(5-oxotetrahydrofuran-2-yl)-2-pyridin-2-yl-1H-benzimidazol-5-yl]oxy}pyridine-2-carboxamide]
